Entries after “also recorded” stand apart in the source; their conditions may differ. Like-named read-outs stand apart in the source and are kept apart here.
Assays:
ERK1/2 = experiment: MAPK activation in ECV304 cells (immunoblot of nuclear phosphorylated ERK1/2); assay type: cell-based; conditions: for effect on T4-induced ERK1/2 activation (in words): PD 98059 30 μmol/L or CGP41251 100 nmol/L for 30 minutes, then 10^−7 M T4 for 15 minutes
Description: ECV304 endothelial cells were cultured in M199 medium with 0.25% hormone-depleted serum 13 for 2 days. […] Nuclear fractions were prepared from all samples by the method reported previously (see Li et al., Carcinogenesis 29:62-69 (2008)), the proteins separated by polyacrylamide gel electrophoresis, and transferred to membranes for immunoblotting with antibody to phosphorylated ERK 1/2.

V-79 cells = conditions: cited from earlier work
[1] = system: chick chorioallantoic membrane (CAM) blood vessel branch points; experiment: Chick chorioallantoic membrane (CAM) model of angiogenesis; assay type: in vivo; conditions: for generation of new blood vessels from existing vessels promoted: 10^−7-10^−9 M
Description: In vivo neovascularization was examined by methods described previously. 9-12 Ten-day-old chick embryos were purchased from SPAFAS (Preston, Conn.) and incubated at 37° C. with 55% relative humidity. A hypodermic needle was used to make a small hole in the shell concealing the air sac, and a second hole was made on the broad side of the egg, directly over an avascular portion of the embryonic membrane that was identified by candling. A false air sac was created beneath the second hole by the application of negative pressure at the first hole, causing the CAM to separate from the shell. […] Thyroid hormone, hormone analogs, FGF2 or control solvents, and inhibitors were then applied to the disks and the disks allowed to dry. The disks were then suspended in PBS and placed on growing CAMs. […] At 24 hours, the MAPK cascade inhibitor PD 98059 was also added to CAMs topically by means of the filter disks. […] The number of vessel branch points contained in a circular region equal to the area of each filter disk were counted. […] In addition, each experiment was performed 3 times. The resulting angiogenesis index is the mean±SEM of new branch points.

ECV304 endothelial cells = experiment: FGF2 release from ECV304 endothelial cells (ELISA); assay type: cell-based
Description: ECV304 endothelial cells were cultured in M199 medium supplemented with 10% fetal bovine serum. […] After 72 hours, the supernatants were harvested and assays for FGF performed without dilution using a commercial ELISA system (R&D Systems) (See Davis et al., Circ Res 94:1500-1506 (2004)).

pKa of functional groups = assay type: physicochemical; conditions: estimated
FGF2 cDNA = experiment: RT-PCR of FGF2 in ECV304 cells; assay type: cell-based; conditions: T4 10^−7 mol/L, apparent by 6 hours, further enhanced by 48 hours
Description: RNA (1 μg) was subjected to reverse transcription-polymerase chain reaction (RT-PCR) using the Access RT-PCR system (Promega). Total RNA was reverse transcribed into cDNA at 48° C. for 45 minutes, then denatured at 94° C. for 2 minutes. Second-strand synthesis and PCR amplification were performed for 40 cycles with denaturation at 94° C. for 30 s, annealing at 60° C. for 60 s, and extension at 68° C. for 120 s, with final ex-tension for 7 minutes at 68° C. after completion of all cycles. PCR primers for FGF2 were as follows: FGF2 sense strand 5′-[…]-3′ (SEQ ID NO:1), antisense strand 5′ […]-3′ (SEQ ID NO:2); the length of the PCR product was 734 bp. Primers for GAPDH included the sense strand 5′-[…]-3′ (SEQ ID NO:3), and antisense strand 5′-[…]-3′ (SEQ ID NO:4); the length of the PCR product was 218 bp. […] The target bands of the gel were quantified using LabImage software (Kapelan), and the value for [FGF2/GAPDH]X10 calculated for each time point.

SF763 glioblastoma cells = conditions: 85 μM, 16 hours at 37° C., cited from earlier work
[2] = system: transplantable liver tumor; conditions: cited from earlier work
[3] = system: glioblastoma (GBM) patients; conditions: induction of mild hypothyroidism; cited from earlier work
Morris 7800 hepatoma = conditions: PTU 0.1%; cited from earlier work
[4] = system: matrigel plug angiogenesis; experiment: Mouse matrigel model of angiogenesis (plug hemoglobin); assay type: in vivo, mice (C57BL/6NCr); conditions: numbers are Tetrac analogs of Example 13; for Mean inhibition of angiogenesis (%) / Hemoglobin (mg/mL) ± SEM: FGF 100 ng + test substance 10 μg/plug; for Hemoglobin (mg/mL) ± SEM: n = 7-14
Description: Normal male mice (C57BL/6NCr) 6-8 weeks of age and weighing ˜20 g were purchased from Taconic farm. Animals were housed 4 per cage, in controlled conditions of temperature (20-24° C.); humidity (60-70%) and 12 hrs. light/dark cycle provided with food and water ad libitum. […] Aliquots of matrigel were placed into cold polypropylene tubes to prevent the matrigel from solidifying and the angiogenesis promoter added to matrigel with or without agonist. Mice were treated daily. Matrigel was subcutaneously injected as triple injection per animal at 100 μL/animal. At day 14 post plug implant all animals were killed in CO2 chamber and matrigel plugs were collected. Plug hemoglobin content was analyzed from three implants/mice (n=6 per group) to measure angiogenesis.
The matrigel plugs dissected from the mice were carefully stripped of any remaining peritoneum. The plugs were placed into 0.5 mL tube of ddH2O and homogenized for 5-10 min. […] Absorbance was read with a Microplate Manager ELISA reader at 540 nm. […] Hemoglobin concentration is a reflection of the number of blood vessels in the plugs.

M21 melanoma cells = conditions: 20 ug/ml; doses of 0, 5, and 10 Gy; cited from earlier work

CO[C@@H]1[C@H](N(C)C(=O)c2ccccc2)C[C@H]2O[C@]1(C)n1c3ccccc3c3c4c(c5c6ccccc6n2c5c31)C(=O)NC4 [CGP41251]
effect on T4-induced ERK1/2 activation (in words) (ERK1/2): blocked

NC(=O)c1cccc(N)c1 [Compound 3AB, 3-aminobenzamide]
inhibition of PLDR (V-79 cells; Thraves et al.): ~70%
Dq value (V-79 cells; with 3AB, without 3.4): 1 Gy

N[C@@H](Cc1cc(I)c(Oc2ccc(O)c(I)c2)c(I)c1)C(=O)O [Compound T3, 3,5,3′-triiodo-L-thyronine]
increase in blood vessel branch formation ([1]; 1 nmol/L (1 nM) for 3 days, vs PBS): 2 fold
generation of new blood vessels from existing vessels promoted [1]: two- to three-fold
FGF2 (pg/mL/10^6 cells) (ECV304 endothelial cells; T3 (0.01 μmol/L), 3 days, Control 27.7 ± 3.1): 98.8 ± 0.5 pg/mL/10^6 cells

N[C@@H](Cc1cc(I)c(Oc2cc(I)c(O)c(I)c2)c(I)c1)C(=O)O [Compound T4, L-thyroxine]
generation of new blood vessels from existing vessels promoted [1]: two- to three-fold
effect on the angiogenic effect of sub-maximal FGF2 (in words) ([1]; T4 0.05 μmol/L + FGF2 0.5 μg/mL): enhanced
appearance of phosphorylated ERK1/2 in cell nuclei (ERK1/2; T4 10^−7 mol/L): ≤ 15 min
time of maximal level of nuclear phosphorylated ERK1/2 (ERK1/2; T4 10^−7 mol/L): 30 min
effect on MAPK activation caused by FGF2 (in words) (ERK1/2; T4 10^−7 mol/L + FGF2 10 ng/mL, 15-minute co incubation): enhanced the MAPK activation caused by FGF2
pKa (pKa of functional groups; read-out: pKa of the COOH (carboxylic acid) group): ~2
pKa (pKa of functional groups; read-out: pKa of the NH2 (amino) group): ~9
abundance of FGF2 cDNA, corrected for GAPDH content (in words) (FGF2 cDNA): increase in abundance of FGF2 cDNA

CC(C)[C@H]1C(=O)N[C@@H](CCCN=C(N)N)C(=O)NCC(=O)N[C@@H](CC(=O)O)C(=O)N[C@H](Cc2ccccc2)C(=O)N1C [EMD121974]
increase of α (SF763 glioblastoma cells): 4.4 fold
α component in the LQ survival equation (SF763 glioblastoma cells; without approximately 0.04): ~0.18 Gy^−1

COc1cccc(-c2cc(=O)c3ccccc3o2)c1N [PD 98059]
effect on angiogenesis stimulated by T4 and T3 together (in words) ([1]; PD 98059 3 μmol/L, T4 0.1 μmol/L and T3 1 nmol/L): completely blocked; also recorded: fully inhibited
effect on FGF2 stimulation of branch formation (in words) ([1]; PD 98059, FGF2 1 μg/mL): effectively blocked
effect on T4-induced ERK1/2 activation (in words) (ERK1/2): inhibited
FGF2 (pg/mL/10^6 cells) (ECV304 endothelial cells; T3 + PD 98059 (2 μmol/L)): 28.4 ± 3.2 pg/mL/10^6 cells
FGF2 (pg/mL/10^6 cells) (ECV304 endothelial cells; T3 + PD 98059 (20 μmol/L)): 21.7 ± 3.5 pg/mL/10^6 cells
FGF2 (pg/mL/10^6 cells) (ECV304 endothelial cells; T4 + PD 98059 (2 μmol/L)): 26.5 ± 4.5 pg/mL/10^6 cells
FGF2 (pg/mL/10^6 cells) (ECV304 endothelial cells; T4 + PD 98059 (20 μmol/L)): 23.2 ± 4.8 pg/mL/10^6 cells

CCCc1cc(=O)[nH]c(=S)[nH]1 [PTU, 6-N-propyl-2-thiouracil]
time needed to grow from approximately 270 mm^3 to 900 mm^3 ([2]; 10 Gy of x-rays plus 0.05% PTU in the drinking water, control 6.2, x-rays alone 11.2): 17.8 days
growth rate with PTU alone (in words) ([2]; in vivo): no difference in growth rate from control neoplasms
improvement of the duration of survival [3]: 3 fold
effect of the presence of PTU on the effect of T4 (in words) ([1]; filter disks pretreated with 1 mmol/L PTU): did not reduce the effect of T4
increase in survival (Morris 7800 hepatoma): approximately 1.3 fold

CC(C)[Si](OC(=O)Cc1cc(I)c(Oc2cc(I)c(O)c(I)c2)c(I)c1)(C(C)C)C(C)C [Tetrac analog 5, Triisopropylsilyl-2-(4-(4-hydroxy-3,5-diiodophenoxy)-3,5-diiodophenyl)acetate]
melting point: 146 °C
Mean % Inhibition ([1]; FGF (1.25 μg/ml) + test substance, 10 μg/plug per footnote, numbers are Tetrac analogs of Example 13): 75 ± 19%
Mean Branch points ([1]; FGF (1.25 μg/ml) + test substance, 10 μg/plug per footnote, numbers are Tetrac analogs of Example 13, n = 8, PBS 73 ± 6, FGF 130 ± 11): 87 ± 11
Mean inhibition of angiogenesis (%) [4]: 104 ± 14%
Hemoglobin (mg/mL) ± SEM [4]: 0.2 ± 0.1 mg/mL
inhibition of FGF-induced angiogenesis (in words) [4]: strong

O=C(Cc1cc(I)c(Oc2cc(I)c(OCC3CO3)c(I)c2)c(I)c1)NC1CCCCC1 (centres unmarked) [Tetrac analog 6, N-cyclohexyl-2-(4-(3,5-diiodo-4-(oxiran-2-ylmethoxy)phenoxy)-3,5-diiodophenyl)acetamide]
melting point: 242 °C
inhibition of angiogenesis in the CAM assay (in words) ([1]; numbers are Tetrac analogs of Example 13): not as strong as compounds 3, 5, 7, and 9
Mean inhibition of angiogenesis (%) [4]: 80 ± 16%
Hemoglobin (mg/mL) ± SEM [4]: 0.7 ± 0.1 mg/mL
inhibition of FGF-induced angiogenesis (in words) [4]: strong

O=C(Cc1cc(I)c(Oc2cc(I)c(OCCCl)c(I)c2)c(I)c1)NC1CCCCC1 [Tetrac analog 15, 2-(4-(4-(2-chloroethoxy)-3,5-diiodophenoxy)-3,5-diiodophenyl)-N-cyclohexylacetamide]
melting point: 263 °C

CNTO 95: human anti-αv integrin monoclonal antibody
increase in sensitivity (in vitro apoptosis) by a factor of (M21 melanoma cells): 2 fold

Source: US8802240B2, “Uses of formulations of thyroid hormone analogs and nanoparticulate forms thereof to increase chemosensitivity and radiosensitivity in tumor or cancer cells” (Nanopharmaceuticals LLC, priority 2011, dated 2014)
